Measurements reported in paper PMC3928365, “Species-Selective Killing of Bacteria by Antimicrobial Peptide-PNAs” (PLoS ONE, 2014).

Tests used:
Test in all cases: Antibiotic disc susceptibility testing (BSAC method)
Conditions in all cases: antibiotic disks (Oxoid), amount per disc per antibiotic (5-30 μg)
E. coli = type: cell-based, Escherichia coli
Procedure: (§1) Strains were tested with twenty different antibiotic disks (Oxoid, UK) representing the major classes of antimicrobial compounds. Tests were done according to the standardized disc susceptibility testing method of the British Society for Antimicrobial Chemotherapy, [37]. The minimum inhibitory concentration (MIC) of the peptide-PNA conjugants were determined using a method modified from Hacek et al and Friedman et al: Peptide-PNA conjugants, obtained as lyophilized powder (Panagene, Korea), were dissolved in ddH20. MIC assays were performed in an ultra low-bind (Costar, UK) polystyrene 96-well plate format in a final volume of 150 µl MMLB. An extended gradient of peptide-PNA concentrations was created by combining five sets of twofold serial dilutions from four starting concentrations (10, 4.8, 3.2 […]); giving 55 final peptide-PNA concentrations which extended over five rows of the 96-well plate. All cultures were incubated at 35°C for 16 h without shaking or agitation. Each peptide-PNA MIC calculation was performed in triplicate, each replicate representing a different starting colony. Mixed-culture experiments were conducted as above with a 1×10^4 CFU/ml starting inoculum. For growth curve analysis, 200 µl cultures were grown in a BioTek PowerWave HT spectrophotometer, under constant agitation at 37°C in a 96-well plate covered with a breathable film. Growth (OD550) was monitored every 5 mins, each experiment was performed in triplicate.

K. pneumoniae = type: cell-based, Klebsiella pneumoniae
Procedure: as §1

S. Typhimurium = type: cell-based, Salmonella enterica serovar Typhimurium
Procedure: as §1

B. subtilis = type: cell-based, Bacillus subtilis
Procedure: as §1, with “For growth curve analysis, 200 µl cultures were grown in a BioTek PowerWave HT spectrophotometer, under constant agitation at 37°C in a 96-well plate covered with a breathable film.” left out

Row | Compound | Sensitive (S)/Resistant (R), E. coli (E. coli) | Sensitive (S)/Resistant (R), K. pneumoniae (K. pneumoniae) | Sensitive (S)/Resistant (R), S. Typhimurium (S. Typhimurium) | Sensitive (S)/Resistant (R), B. subtilis (B. subtilis)
1 | NCC[C@H](O)C(=O)N[C@@H]1C[C@H](N)[C@@H](O[C@H]2O[C@H](CN)[C@@H](O)[C@H](O)[C@H]2O)[C@H](O)[C@H]1O[C@H]1O[C@H](CO)[C@@H](O)[C@H](N)[C@H]1O [Amikacin] | S | S | S | –
2 | CC1(C)S[C@@H]2[C@H](NC(=O)[C@H](N)c3ccc(O)cc3)C(=O)N2[C@H]1C(=O)O [Amoxicillin] | S | R | S | –
3 | CC[C@H]1OC(=O)[C@H](C)[C@@H](O[C@H]2C[C@@](C)(OC)[C@@H](O)[C@H](C)O2)[C@H](C)[C@@H](O[C@@H]2O[C@H](C)C[C@H](N(C)C)[C@H]2O)[C@](C)(O)C[C@@H](C)CN(C)[C@H](C)[C@@H](O)[C@]1(C)O [Azithromycin] | R | R | R | –
4 | CC1=C(C(=O)O)N2C(=O)[C@@H](NC(=O)[C@H](N)c3ccccc3)[C@H]2SC1 [Cefalexin] | S | S | S | –
5 | CO/N=C(\C(=O)N[C@@H]1C(=O)N2C(C(=O)O)=C(COC(C)=O)CS[C@H]12)c1csc(N)n1 [Cefotaxime] | S | S | S | –
6 | CO/N=C(\C(=O)N[C@@H]1C(=O)N2C(C(=O)O)=C(COC(N)=O)CS[C@H]12)c1ccco1 [Cefuroxime] | S | S | S | –
7 | CCC[C@@H]1C[C@@H](C(=O)N[C@@H]([C@H]2O[C@H](SC)[C@H](O)[C@@H](O)[C@H]2O)[C@H](C)Cl)N(C)C1 [Clindamycin] | R | R | R | –
8 | CC[C@H]1OC(=O)[C@H](C)[C@@H](O[C@H]2C[C@@](C)(OC)[C@@H](O)[C@H](C)O2)[C@H](C)[C@@H](O[C@@H]2O[C@H](C)C[C@H](N(C)C)[C@H]2O)[C@](C)(O)C[C@@H](C)C(=O)[C@H](C)[C@@H](O)[C@]1(C)O [Erythromycin] | R | R | R | –
9 | CN1CCN(c2c(F)cc3c(=O)c(C(=O)O)cn(CCF)c3c2F)CC1 [Fleroxacin] | S | S | – | –
10 | CNC(C)C1CCC(N)C(OC2C(N)CC(N)C(OC3OCC(C)(O)C(NC)C3O)C2O)O1 (stereo not shown) [Gentamicin] | S | R | S | –
11 | C[C@@H](O)[C@H]1C(=O)N2C(C(=O)O)=C(SCCN=CN)C[C@H]12 [Imipenem] | S | S | S | –
12 | CCC[C@@H]1C[C@@H](C(=O)N[C@@H]([C@H]2O[C@H](SC)[C@H](O)[C@@H](O)[C@H]2O)[C@@H](C)O)N(C)C1 [Lincomycin] | R | R | R | –
13 | COc1cccc(OC)c1C(=O)N[C@@H]1C(=O)N2[C@@H]1SC(C)(C)[C@@H]2C(=O)O [Methicillin] | S | R | S | –
14 | CCn1cc(C(=O)O)c(=O)c2ccc(C)nc21 [Nalidixic acid] | S | S | S | –
15 | CC1COc2c(N3CCN(C)CC3)c(F)cc3c(=O)c(C(=O)O)cn1c23 (stereo not shown) [Oflaxacin] | S | S | S | S
16 | CCn1cc(C(=O)O)c(=O)c2cnc(N3CCNCC3)nc21 [Pipemidic acid] | S | S | S | –
17 | [H]/N=C(/N)N[C@H]1[C@H](O)[C@@H](O)[C@H](O[C@@H]2O[C@@H](C)[C@](O)(C=O)[C@H]2O[C@@H]2O[C@@H](CO)[C@H](O)[C@@H](O)[C@@H]2NC)[C@@H](N/C(N)=N\[H])[C@@H]1O [Streptomycin] | R | S | S | –
18 | COc1cc(Cc2cnc(N)nc2N)cc(OC)c1OC [Trimethoprim] | S | R | S | –
19 | CN[C@H](CC(C)C)C(=O)N[C@H]1C(=O)N[C@@H](CC(N)=O)C(=O)N[C@H]2C(=O)N[C@H]3C(=O)N[C@H](C(=O)N[C@H](C(=O)O)c4cc(O)cc(O)c4-c4cc3ccc4O)[C@H](O)c3ccc(c(Cl)c3)Oc3cc2cc(c3O[C@@H]2O[C@H](CO)[C@@H](O)[C@H](O)[C@H]2O[C@H]2C[C@](C)(N)[C@H](O)[C@H](C)O2)Oc2ccc(cc2Cl)[C@H]1O [Vancomycin] | R | R | R | –
20 | Neomycin | S | S | S | S
